Test results reported in patent US8431593B2, “Heteroaryl amide derivatives” (H. Lundbeck A/S, priority 2006, dated 2013).

The compounds below were run against T1, P2X7 receptor (Homo sapiens, UniProt Q99572) (assay: P2X7 calcium mobilization assay, high throughput, antagonist activity (Example 4A)). Details: not given.
T1 construct: host or cells: SH-SY5Y
T1 sequence (Q99572 1-595): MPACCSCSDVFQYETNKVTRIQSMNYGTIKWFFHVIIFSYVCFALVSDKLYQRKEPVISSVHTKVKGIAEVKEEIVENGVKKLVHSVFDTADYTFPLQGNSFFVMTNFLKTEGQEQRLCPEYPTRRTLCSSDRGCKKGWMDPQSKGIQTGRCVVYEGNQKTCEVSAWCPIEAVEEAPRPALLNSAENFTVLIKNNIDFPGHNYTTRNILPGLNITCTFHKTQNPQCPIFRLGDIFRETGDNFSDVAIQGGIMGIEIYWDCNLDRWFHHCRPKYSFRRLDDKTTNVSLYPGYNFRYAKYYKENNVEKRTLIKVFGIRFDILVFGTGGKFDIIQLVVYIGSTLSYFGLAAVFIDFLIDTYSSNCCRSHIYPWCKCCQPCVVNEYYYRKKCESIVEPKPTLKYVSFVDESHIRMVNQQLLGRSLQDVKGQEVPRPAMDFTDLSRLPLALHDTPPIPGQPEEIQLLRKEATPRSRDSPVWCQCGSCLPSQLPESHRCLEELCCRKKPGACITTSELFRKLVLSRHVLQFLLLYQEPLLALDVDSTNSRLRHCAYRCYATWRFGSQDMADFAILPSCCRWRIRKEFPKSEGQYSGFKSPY
Type: cell-based
Summary of the method: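 100,000 cells/well, plated day -1. Dye 1 h → rinse → compound 1 h, RT → FLIPR^TETRA Ca2+ mobilization. Max RFU minus mean negative control (no agonist); mean agonist-well max as positive control.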
Compound `O=C(NCC12CC3CC(CC(C3)C1)C2)c1cccc2nc(CC(=O)N3CCC4(CC3)OCCO4)cn12` [Compound 187, N-(adamantan-1-ylmethyl)-2-[2-(1,4-dioxa-8-azaspiro[4.5]dec-8-yl)-2-oxoethyl]imidazo[1,2-a]pyridine-5-carboxamide] has an IC50 of under 2 µM. For `CCOC(=O)C1CCCN(Cc2cn3c(C(=O)NCC45CC6CC(CC(C6)C4)C5)cccc3n2)C1` (stereo not shown) [Compound 189, ethyl 1-({5-[(adamantan-1-ylmethyl)carbamoyl]imi-dazo[1,2-a]pyridin-2-yl}methyl)piperidine-3-carboxylate], the IC50 was under 2 µM. `O=C(NCC12CC3CC(CC(C3)C1)C2)c1cccc2nc(CN3CCCC(C(=O)O)C3)cn12` (stereo not shown) [Compound 191, 1-({5-[(adamantan-1-ylmethyl)carbamoyl]imi-dazo[1,2-a]pyridin-2-yl}methyl)piperidine-3-carboxylic acid] was tested, and the IC50 was under 2 µM. `O=C(O)c1cnn(Cc2cn3c(C(=O)NCC45CC6CC(CC(C6)C4)C5)cccc3n2)c1` [Compound 203, 1-({5-[(adamantan-1-ylmethyl)carbamoyl]imi-dazo[1,2-a]pyridin-2-yl}methyl)-1H-pyrazole-4-carboxylic acid] gave an IC50 of under 2 µM. In the case of `CCOC(=O)c1cnn(Cc2cn3c(C(=O)NCC45CC6CC(CC(C6)C4)C5)cccc3n2)c1` [Compound 204, ethyl 1-({5-[(adamantan-1-ylmethyl)carbamoyl]imi-dazo[1,2-a]pyridin-2-yl}methyl)-1H-pyrazole-4-carboxylate], the IC50 is reported as under 2 µM.

Same assay, conditions: SH-SY5Y cells; 50% decrease in fluorescence response to 80 μM BzATP; read-out: IC50
Compound `O=C(NCC12CC3CC(CC(C3)C1)C2)c1cccc2nc(CC(=O)N3CCCCC3)cn12` [Compound 181, N-(adamantan-1-ylmethyl)-2-(2-oxo-2-piperidin-1-ylethyl)imidazo[1,2-a]pyridine-5-carboxamide] has an IC50 of under 2 µM. For `O=C(NCC12CC3CC(CC(C3)C1)C2)c1cccc2nc(CC(=O)N3CCOCC3)cn12` [Compound 182, N-(adamantan-1-ylmethyl)-2-(2-morpholin-4-yl-2-oxoethyl)imidazo[1,2-a]pyridine-5-carboxamide], the IC50 was under 2 µM. For `CCC(=O)NC1CCN(C(=O)Cc2cn3c(C(=O)NCC45CC6CC(CC(C6)C4)C5)cccc3n2)CC1` [Compound 183, N-(adamantan-1-ylmethyl)-2-{2-oxo-2-[4-(propionylamino)piperidin-1-yl]ethyl}imidazo[1,2-a]pyridine-5-carboxamide], the IC50 was under 2 µM. `CC(C)C(=O)NC1CCN(C(=O)Cc2cn3c(C(=O)NCC45CC6CC(CC(C6)C4)C5)cccc3n2)CC1` [Compound 184, N-(adamantan-1-ylmethyl)-2-{2-[4-(isobutyrylamino)piperidin-1-yl]-2-oxoethyl}imidazo[1,2-a]pyridine-5-carboxamide] was tested, and the IC50 was under 2 µM. With `CC1(C)CCCN(C(=O)Cc2cn3c(C(=O)NCC45CC6CC(CC(C6)C4)C5)cccc3n2)C1` [Compound 185, N-(adamantan-1-ylmethyl)-2-[2-(3,3-dimethylpiperidin-1-yl)-2-oxoethyl]imidazo[1,2-a]pyridine-5-carboxamide] the IC50 was under 2 µM. `CCCN(C)C(=O)Cc1cn2c(C(=O)NCC34CC5CC(CC(C5)C3)C4)cccc2n1` [Compound 186, N-(adamantan-1-ylmethyl)-2-{2-[methyl(propyl)amino]-2-oxoethyl}imidazo[1,2-a]pyridine-5-carboxamide] showed an IC50 of under 2 µM. With `N[C@H]1CCN(Cc2cn3c(C(=O)NCC45CC6CC(CC(C6)C4)C5)cccc3n2)C1` [Compound 188, N-(adamantan-1-ylmethyl)-2-{[(3S)-3-aminopyrrolidin-1-yl]methyl}imidazo[1,2-a]pyridine-5-carboxamide] the IC50 was under 2 µM. `O=C(NCC12CC3CC(CC(C3)C1)C2)c1cccc2nc(COC3CCNC3)cn12` (stereo not shown) [Compound 190, N-(adamantan-1-ylmethyl)-2-[(pyrrolidin-3-yloxy)methyl]imidazo[1,2-a]pyridine-5-carboxamide] showed an IC50 of under 2 µM. In the case of `O=C(NCC12CC3CC(CC(C3)C1)C2)c1cccc2nc(CC(=O)N3C[C@@H]4C[C@H]3CN4)cn12` [Compound 192, N-(adamantan-1-ylmethyl)-2-{2-[(1S,4S)-2,5-diazabicyclo[2.2.1]hept-2-yl]-2-oxoethyl}imidazo[1,2-a]pyridine-5-carboxamide], the IC50 is reported as under 2 µM. In the case of `CS(=O)(=O)NCCc1cn2c(C(=O)NCC34CC5CC(CC(C5)C3)C4)cccc2n1` [Compound 193, N-(adamantan-1-ylmethyl)-2-{2-[(methylsulfonyl)amino]eth-yl}imidazo[1,2-a]pyridine-5-carboxamide], the IC50 is reported as under 2 µM. Compound `CCS(=O)(=O)NCCc1cn2c(C(=O)NCC34CC5CC(CC(C5)C3)C4)cccc2n1` [Compound 194, N-(adamantan-1-ylmethyl)-2-{2-[(ethylsulfonyl)amino]eth-yl}imidazo[1,2-a]pyridine-5-carboxamide] has an IC50 of under 2 µM. Compound `CC(=O)c1cn2c(C(=O)NCC34CC5CC(CC(C5)C3)C4)cccc2n1` [Compound 196, 2-acetyl-N-(adamantan-1-ylmethyl)imidazo[1,2-a]pyridine-5-carboxamide] has an IC50 of under 2 µM. Compound `O=C(NCC12CC3CC(CC(C3)C1)C2)c1cccc2nc(CN3CC[C@@H](N(CCO)CCO)C3)cn12` [Compound 197, N-(adamantan-1-ylmethyl)-2-({(3R)-3-[bis(2-hydroxy-ethyl)amino]pyrrolidin-1-yl}methyl)imidazo[1,2-a]pyridine-5-carboxamide] has an IC50 of under 2 µM. In the case of `O=C(NCC12CC3CC(CC(C3)C1)C2)c1cccc2nc(CN3CC[C@@H](NCCO)C3)cn12` [Compound 198, N-(adamantan-1-ylmethyl)-2-({(3R)-3-[(2-hydroxy-ethyl)amino]pyrrolidin-1-yl}methyl)imidazo[1,2-a]pyridine-5-carboxamide], the IC50 is reported as under 2 µM. Compound `O=C(NCC12CC3CC(CC(C3)C1)C2)c1cccc2nc(Cn3cnc(CO)c3)cn12` [Compound 199, N-(adamantan-1-ylmethyl)-2-{[4-(hydroxymethyl)-1H-imidazol-1-yl]methyl}imidazo[1,2-a]pyridine-5-carboxamide] has an IC50 of under 2 µM. `O=C(NCC12CC3CC(CC(C3)C1)C2)c1cccc2nc(Cn3cncc3CO)cn12` [Compound 200, N-(adamantan-1-ylmethyl)-2-{[5-(hydroxymethyl)-1H-imidazol-1-yl]methyl}imidazo[1,2-a]pyridine-5-carboxamide] showed an IC50 of under 2 µM. `CCC(=O)NCCc1cn2c(C(=O)NCC34CC5CC(CC(C5)C3)C4)cccc2n1` [Compound 201, N-(adamantan-1-ylmethyl)-2-[2-(propionylamino)eth-yl]imidazo[1,2-a]pyridine-5-carboxamide] was tested, and the IC50 was under 2 µM. `CC(=O)NCCc1cn2c(C(=O)NCC34CC5CC(CC(C5)C3)C4)cccc2n1` [Compound 202, 2-(2-acetamidoethyl)-N-(adamantan-1-ylmethyl)imidazo[1,2-a]pyridine-5-carboxamide] gave an IC50 of under 2 µM. Compound `CC(c1cn2c(C(=O)NCC34CC5CC(CC(C5)C3)C4)cccc2n1)N1CC[C@@H](N)C1` (stereo partly drawn) [Compound 205, N-(adamantan-1-ylmethyl)-2-{1-[(3R)-3-aminopyrrolidin-1-yl]ethyl}imidazo[1,2-a]pyridine-5-carboxamide] has an IC50 of under 2 µM. For `Nc1nnn(Cc2cn3c(C(=O)NCC45CC6CC(CC(C6)C4)C5)cccc3n2)n1` [Compound 206, N-(adamantan-1-ylmethyl)-2-[(5-amino-2H-tetrazol-2-yl)methyl]imidazo[1,2-a]pyridine-5-carboxamide], the IC50 was under 2 µM. For `Nc1nnnn1Cc1cn2c(C(=O)NCC34CC5CC(CC(C5)C3)C4)cccc2n1` [Compound 207, N-(adamantan-1-ylmethyl)-2-[(5-amino-1H-tetrazol-1-yl)methyl]imidazo[1,2-a]pyridine-5-carboxamide], the IC50 was under 2 µM. In the case of `Nc1ccn(Cc2cn3c(C(=O)NCC45CC6CC(CC(C6)C4)C5)cccc3n2)n1` [Compound 208, N-(adamantan-1-ylmethyl)-2-[(3-amino-1H-pyrazol-1-yl)methyl]imidazo[1,2-a]pyridine-5-carboxamide], the IC50 is reported as under 2 µM. Compound `Nc1ccnn1Cc1cn2c(C(=O)NCC34CC5CC(CC(C5)C3)C4)cccc2n1` [Compound 209, N-(adamantan-1-ylmethyl)-2-[(5-amino-1H-pyrazol-1-yl)methyl]imidazo[1,2-a]pyridine-5-carboxamide] has an IC50 of under 2 µM. Compound `Cc1ccn(Cc2cn3c(C(=O)NCC45CC6CC(CC(C6)C4)C5)cccc3n2)n1` [Compound 210, N-(adamantan-1-ylmethyl)-2-[(3-methyl-1H-pyrazol-1-yl)methyl]imidazo[1,2-a]pyridine-5-carboxamide] has an IC50 of under 2 µM. `O=C(NCC12CC3CC(CC(C3)C1)C2)c1cccc2nc(Cn3ccccc3=O)cn12` [Compound 211, N-(adamantan-1-ylmethyl)-2-[(2-oxopyridin-1(2H)-yl)methyl]imidazo[1,2-a]pyridine-5-carboxamide] gave an IC50 of under 2 µM.

Same assay, conditions: fluorescence response of cells exposed to 80 μM 2′(3′)-O-(4-benzoyl-benzoyl)adenosine 5′-triphosphate; Example 4A; read-out: IC50
For `CCNC(=O)Cc1cn2c(C(=O)NCC(CC(C)C)c3ccccc3)cccc2n1` (stereo not shown) [Compound 220, 2-[2-(ethylamino)-2-oxoethyl]-N-(4-methyl-2-phenylpentyl) imidazo [1,2-a]pyridine-5-carboxamide], the IC50 was under 2 µM.
